Eight compounds from patent publication US20260159854A1, “NOVEL CARRIERS FOR NUCLEIC ACID AND/OR PROTEIN DELIVERY” (LUDWIG-MAXIMILIANS-UNIVERSITÄT MÜNCHEN, priority 2022, published 2026) can be followed below.

The subject of one data set is HeLa cells. Description: CellTiterGlo assay (relative metabolic activity). It is filed as cell-based. The note with it: pDNA polyplexes 200 ng/well, 24 h, vs non-reducible analogs. The protocol:
HeLa cells were seeded 24 h prior to transfection (5000 cells/well) in 96-well plates. Immediately prior to transfection, the medium was replaced with suitable amounts of fresh medium containing 10% (v/v) FBS to reach a final volume of 100 μL during transfection. The nanoparticles were prepared as described in section 6.1 and transfected with indicated doses. The medium was removed at 24 h after transfection, and 25 μL of fresh, pre-warmed medium as well as 25 μL of CellTiterGlo® Reagent (Promega, Mannheim, Germany) were added to each well [S. Berger et al., Biomacromolecules 2021, 22, 1282; A. Krhač Levačić et al., J Controlled Release 2021, 339, 27]. After incubation on an orbital shaker for 30 min at RT, luminescence was recorded using a Centro LB 960 plate reader luminometer (Berthold Technologies, Bad Wildbad, Germany). The luminescent signals (in RLU) of the samples were normalized to the luminescent signal of the negative control (HBG buffer-treated control cells). Results were presented as relative metabolic activity related to the negative control. Experiments were performed as triplicates.
A general note: ATP-based viability assays read luminescence as a measure of living cells.

The test system of another data set is N2a/eGFPLuc cells. Description: eGFP knock out efficiency of Cas9 mRNA/sgGFP1 polyplexes by flow cytometry. The data set is classed as cell-based, murine. The note with it: after 72 h. The procedure: For Cas9 mRNA/sgRNA polyplexes, CleanCap® Cas9 mRNA (5moU) (Trilink Biotechnologies, San Diego, CA, USA) and sgRNA at a fixed weight ratio of 1:1 were mixed and diluted in HBG.
Calculated amounts of aminolipid at indicated N/P (nitrogen/phosphate) ratios (see above) were diluted in separate tubes of HBG. Equal volumes of nucleic acid solution and aminolipid solution were mixed by rapid pipetting and incubated 40 min at RT in a closed Eppendorf reaction tube.
Cas9 mRNA/sgRNA polyplex treatments were performed in triplicate in 96-well plates. N2a eGPFLuc cells were seeded 24 h prior to transfection (5000 cells/well). On the next day, the medium was replaced with 80 μL of fresh pre-warmed medium containing 10% (v/v) FBS. The nanoparticles were prepared as described above, and the volumes of 20, 10, and 5 μL of polyplex solution (2.5 μg/mL Cas9 mRNA and 2.5 μg/mL sgGFP1) were added. 20 μL HBG buffer per well was used as negative control. After 24 h of treatment, the cells were expanded, and the medium was replaced by 100 μL of fresh pre-warmed medium and incubated for additional 48 h. […] Only isolated viable cells were evaluated. The eGFP knock out efficiency was determined as the percentage of eGFP negative cells normalized to the control measurements with HBG buffer-treated cells.
A general note: Flow cytometry measures light scatter and fluorescence of single cells or particles in a stream.

Data set [1] in a line: Particle size, polydispersity and zeta potential measurement (DLS, ELS). It is filed as physicochemical. The procedure: 6.6 Particle Size and Zeta Potential Measurement for pDNA, mRNA, siRNA, Cas9 mRNA/sgRNA and Cas9 mRNA/sgRNA/ssDNA Polyplexes as Well as mRNA LNPs
Measurements of size and zeta potential were performed with a Zetasizer Nano ZS (Malvern Instruments, Malvern, Worcestershire, U.K.) in a folded capillary cell (DTS1070) by dynamic and electrophoretic laser-light scattering (DLS, ELS). […] Samples were measured three times with six sub runs per measurement. For measurement of the zeta potential, all samples were diluted to 800 μL with HBG or HEPES (for siRNA polyplexes) directly before measurement. Parameters were identical to the size measurement apart from an equilibration time of 60 sec. Three measurements with 15 sub runs lasting 10 sec each were performed, and zeta potentials were calculated by the Smuchowski equation.

A further data set relates to N2a cells. Briefly: Co-delivery efficiency of mRNA/pDNA polyplexes by flow cytometry. The note with it: N/P 18, 25 and 50 ng combined nucleic acid/well. It is filed as cell-based, murine. The procedure:
CleanCap® mCherry mRNA (5moU) (Trilink Biotechnologies, San Diego, CA, USA) and pEGFP-N1 pDNA (Clontech Laboratories, Inc. (now Takara Bio USA, Inc., San Jose, CA, USA)) at a fixed weight ratio of 1:1 were mixed and diluted in HBG. Calculated amounts of aminolipid at indicated N/P (nitrogen/phosphate) ratios (see above) were diluted in separate tubes of HBG. Equal volumes of nucleic acid solution and aminolipid solution were mixed by rapid pipetting and incubated 40 min at RT in a closed Eppendorf reaction tube. The final concentration of nucleic acid in the polyplex solution was 5 μg/mL (2.5 μg/mL mCherry mRNA plus 2.5 μg/mL pEGFP-N1 pDNA).
mRNA/pDNA polyplex treatments were performed in triplicate in 96-well plates. N2a cells were seeded 24 h prior to transfection (10,000 cells/well). On the next day, the medium was replaced with 80 μL of fresh pre-warmed medium containing 10% (v/v) FBS. The nanoparticles were prepared as described above, and the volumes of 10 and 5 μL of polyplex solution (2.5 μg/mL mCherry mRNA and 2.5 μg/mL pEGFP-N1 pDNA) were added. 20 μL HBG buffer per well was used as negative control. After 24 h of treatment, cells were collected and re-suspended in PBS solution containing 10% (v/v) FBS (FACS buffer) for flow cytometric evaluation. All samples were analyzed by flow cytometry using a CytoFLEX S Flow Cytometer (Beckman Coulter, Brea, CA, USA). Shortly before the measurement, 1 ng/μL 4′, 6-diamidino-2-phenylindole (DAPI) was added and used to discriminate between viable and dead cells. The cellular fluorescence was assayed by excitation of DAPI at 405 nm and detection of emission at 450 nm. Only isolated viable cells were evaluated. Gates were set compared to control measurements with HBG buffer-treated cells. […] Flow cytometry data were analyzed using FlowJo™ v10.8 flow cytometric analysis software by FlowJo, LLC (Becton, Dickinson and Company, U.S.). The cellular fluorescence expression was assayed by excitation at 561 nm and 488 nm, the detection of emission at 610 nm and 530 nm for mCherry and eGFP, respectively.

In data set [2] the test system is N2a/eGFPLuc, DU145/eGFPLuc, and KB/eGFPLuc. Briefly: Gene silencing activity of siRNA polyplexes in three cell lines. It is filed as cell-based, murine, human. The note with it: N/P 18, 15.6 ng siRNA/well, 48 h.
For data set [3], the system named is N2a/eGFPLuc, KB/eGFPLuc, and CT26/eGFPLuc. Briefly: Gene silencing activity of siRNA LNPs in three cell lines. The data set is classed as cell-based. The note with it: N/P 9, 63 and 31 ng siRNA/well, 48 h.
Another data set deals with Huh7 cells. Briefly: Luciferase gene expression of mRNA LNPs in Huh7 cells. The data set is classed as cell-based, human. The note with it: 62.5 ng mRNA/well, N/P 9.
[4] abbreviates: mRNA polyplexes, 12.5 μg/mL CleanCap FLuc mRNA (5moU), N/P 12 (1611, 1719, 1722, 1732), N/P 24 (1614), N/P 18 (1621, 1747).
[5] abbreviates: mRNA LNPs, 12.5 μg/mL CleanCap FLuc mRNA (5moU), N/P 9, molar ratios see Table A.
Where [6] appears, read: siRNA LNPs, siCtrl 25 μg/mL, N/P 9.

In the case of `CCCCCCCCCCCCN(CCCCCCCCCCCC)CCCCCCCC(=O)NCCSSCCNC(=O)CCC(=O)NCCCC[C@H](NC(=O)CCC(=O)NCCNCCNCCNCCNC(=O)[C@@H](N)CCCCNC(=O)CCC(=O)NCCSSCCNC(=O)CCCCCCCN(CCCCCCCCCCCC)CCCCCCCCCCCC)C(=O)O` [compound 1821, K(ssbb-12Oc)-Stp-K(ssbb-12Oc)], the “toxicity (relative metabolic activity, CellTiter Glo)” value with HeLa cells is “significantly less toxic”.

Consider `CCCCCCCCN(CCCCCCCC)CCCCCCCC(=O)NCCCC[C@H](NC(=O)CCCCCCCN(CCCCCCCC)CCCCCCCC)C(=O)NCCSSCCNC(=O)CCC(=O)NCCCC[C@H](NC(=O)CCC(=O)NCCSSCCNC(=O)[C@H](CCCCNC(=O)CCCCCCCN(CCCCCCCC)CCCCCCCC)NC(=O)CCCCCCCN(CCCCCCCC)CCCCCCCC)C(=O)NCCNCCNCCNCCNC(=O)CCC(=O)NCCNCCNCCNCCNC(=O)CCC(=O)O` [compound 1824, [(8Oc)2)-K-ssbb]2-K-Stp2], for which the “toxicity (relative metabolic activity, CellTiter Glo)” value in the data set with HeLa cells is “significantly less toxic”.

Regarding K(8Oc)2-Stp2-K[K(8Oc)2] [compound 1732], the “eGFP knock-out efficiency of Cas9 mRNA/sgRNA polyplexes” value in the data set with N2a/eGFPLuc cells is listed as “good knock-out efficiency”. In data set [1] (setting [4]), the Pdl is recorded as 0.304, the Z-average came out at 98.2 nm and the Zeta potential was 26.2 mV.

As for “K(12Oc)2-Stp-K[K(12Oc)2] [compound 1716]”, in the data set with N2a cells, the “mCherry mRNA/eGFP pDNA co-expression (co-delivery efficiency)” value is “most potent structures”. In data set [2], the “gene silencing efficiency of siRNA polyplexes in three cell lines” value is reported as “great performance in all three tested cell lines”. Moreover, in data set [1] (setting [5]), the Pdl was 0.150, the Z-average came to 200.9 nm and the Zeta potential was −0.25 mV.

As for K[K(10Oc)2]2-Stp [compound 1762], in data set [3], the “gene silencing (eGFP silencing) of siRNA LNPs” value is “approximately the same potential for eGFP silencing”. In data set [1] (setting [6]), this compound returned a Pdl of 0.104, a Z-average of 244.3 nm and a Zeta potential of −3.2 mV.

Regarding K[K(12He)2]2-Stp [compound 1754], in the data set on Huh7 cells, the “RLU values of mRNA LNPs relative to DLin-MC3-DMA” value was 10 fold. Moreover, in data set [1] (setting [5]), the Pdl was determined as 0.187, the Z-average came to 171.0 nm and the Zeta potential is given as 1.11 mV. In addition, in data set [1] (setting [6]), the Pdl was found to be 0.144, the Z-average came out at 173.0 nm and the Zeta potential came out at 2.2 mV.

On to K[K(14He)2]2-Stp [compound 1755], for which the “luciferase expression of mRNA LNPs relative to SM-102” value with Huh7 cells came out at 2 fold. Moreover, in data set [1] (setting [5]), the Pdl came to 0.220, the Z-average came to 149.6 nm and the Zeta potential came out at 2.26 mV. In data set [1] (setting [6]), the Pdl was 0.287, the Z-average was determined as 160.6 nm and the Zeta potential is 3.4 mV.

As for K[K(16Bu)2]2-Stp [compound 1753], in data set [3], the “gene silencing (eGFP silencing) of siRNA LNPs” value is “approximately the same potential for eGFP silencing”. For the same compound, in data set [1] (setting [5]), the Pdl amounted to 0.227, the Z-average is 142.1 nm and the Zeta potential is 3.39 mV. In data set [1] (setting [6]), this compound had a Pdl of 0.292, a Z-average of 195.1 nm and a Zeta potential of 2.6 mV.
